Marks after values point to notes of the source that are not given here.
How the values were obtained:
[1] = tested on: gastric mucosa; assay: acute bisphosphonate/indomethacin gastric injury model of Blank et al. (gastric lesion score, gastric bleeding); assay type: in vivo, rat; conditions: for order of gastrotoxicity (FIG. 4) / Gastric Lesion Score (lesioned area, mm^2): rats; for order of gastrotoxicity (FIG. 4): comparison of three bisphosphonates; for Gastric Lesion Score (lesioned area, mm^2): Indo 40 mg/kg, pamidronate 300 mg/kg, PC-pamidronate 1:1 weight ratio, n = 4-5 rats/group
From the text: (§1) The experiments investigated the effects of different bisphosphonates on the surface hydrophobicity and phospholipid concentration of the antral mucosa, using the animal model of Blank et. al. (Blank M A, Ems B L, Gibson G W, Myers W R, Berman S K, Phipps R J, Smith P N, Dig Dis Sci, 42, 281-288 (1997)), and compared the effects of these surface changes to the gastric toxicity of these drugs.
Looking at FIG. 2, an antrum lesion score is plotted against time.
The model and the ability for phospholipids to inhibit bisphosphonate GI toxicity was investigated in pilot preclinical studies using the rodent model of Blank et. al. (Blank M A, Ems B L, Gibson G W, Myers W R, Berman S K, Phipps R J, Smith P N, Dig Dis Sci, 42, 281-288 (1997)), where the bisphosphonate test drug was administered simultaneously with indomethacin.
60 mg of Phospholipon 90G (90-93% pure PC) was dissolved in chloroform in a tube. […] The organic solvent was removed under nitrogen and resulting PC material was left under vacuum overnight to form a PC film in the tube. […] The solution was then added to the dried PC film in the tube. The mixture was sonicated in a both type sonicator at room temperature for 5 min., prior to administration to fasted rats.
20 mg of dipalmitoyl PC (DPPC) and Phospholipon 90 G were dissolved in chloroform in separate tubes, and dried as described in Example 1.
60 mg and 240 mg of Phospholipon 90G were dissolved in chloroform and dried as described in Example 1 in separate tubes.

[2] = tested on: gastric mucosa; assay: surface hydrophobicity and phospholipid (PC) concentration of the antral/gastric mucosa
From the text: as §1

[3] = tested on: gastric mucosa; assay: histological studies of gastric mucosa; conditions: rat, in vivo
[4] = tested on: mucosae of the gastric body and antrum; conditions: increasing doses over a 4 week period in rats; macroscopic and histological; cited from earlier work
[5] = tested on: gastric mucosa; conditions: rats, intragastric high doses, with indomethacin; cited from earlier work
[6] = healthy subjects, up to 2 weeks, 40 mg or 10 mg; cited from earlier work
[7] = tested on: aspirin-induced gastric erosions; conditions: 10 mg and 40 mg doses; cited from earlier work
[8] = tested on: experimentally induced gastric ulcers; conditions: rats; cited from earlier work

Structure (SMILES): O=P(O)(O)C(O)(Cc1cccnc1)P(=O)(O)O [risedronate, I-hydroxy-2-(3-pyridyl) ethylidene-1,(3-pyridyl) ethylidene-1,1-bisphosphonic acid]
- order of gastrotoxicity (FIG. 4) [1]: pamidronate>>alendronate>risedronate
- order of ability to attenuate the stomach's hydrophobic phospholipid barrier property (FIG. 5) ([2]; same order as gastrotoxicity maintained): pamidronate>>alendronate>risedronate
- surface injury to the gastric mucosa (histology) [3]: induced some surface injury
- injurious effect on mucosae of the gastric body and antrum [4]: dose-dependent injurious effect

Structure (SMILES): CC(O)(P(=O)(O)O)P(=O)(O)O [etidronate, 1-hydroxyethylidene-1,1-bisphosphonic acid]
- injurious effect on mucosae of the gastric body and antrum [4]: dose-dependent injurious effect

Structure (SMILES): COc1ccc2c(c1)c(CC(=O)O)c(C)n2C(=O)c1ccc(Cl)cc1 [Indomethacin]
- Gastric Lesion Score (lesioned area, mm^2) [1]: 0 ± 0 mm^2

Structure (SMILES): NCCC(O)(P(=O)(O)O)P(=O)(O)O [Pamidronate, 3-amino-1-hydroxypropylidene-1,1-bisphosphonic acid]
- gastric lesions (antrum lesion score, FIG. 2) ([1]; rat stomach, over a 4 hr period, in combination with indomethacin): induced lesions in both the antrum and body of the rat stomach
- order of gastrotoxicity (FIG. 4) [1]: pamidronate>>alendronate>risedronate
- Gastric Lesion Score (lesioned area, mm^2) [1]: 62 ± 11* mm^2
- irritation of the gastric mucosa (comparison of bisphosphonates) [5]: more irritating

Structure (SMILES): NCCCC(O)(P(=O)(O)O)P(=O)(O)O [alendronate, 4-amino-1-hydroxybutylidene-1,1-bisphosphonic acid]
- order of ability to attenuate the stomach's hydrophobic phospholipid barrier property (FIG. 5) ([2]; rat, in vivo): pamidronate>>alendronate>risedronate
- injurious effect on mucosae of the gastric body and antrum [4]: dose-dependent injurious effect
- volunteers who developed one or more gastric ulcers [6]: 10-20%
- volunteers with observable gastric erosions [6]: 40-60%
- rate of healing of aspirin-induced gastric erosions [7]: significantly retarded
- healing of experimentally induced gastric ulcers [8]: significantly delayed the healing
